In US20240307362A1 (priority 2019, published 2024) one finds IC50 data, which are given here for four compounds.

Where two headings read alike, the source gives them in different places.

What all share (type): cell-based
One assay concerns HCC-827 cells. The experiment in a line: HCC-827 cell proliferation assay (EGFRex19del). To be noted: Homo sapiens, HCC827, 72 h, read-out: HCC-827 IC50. Here is the method:
(§1) HCC-827 cells were purchased from ATCC. 400 HCC-829 cells per well were seeded in growth medium (RPMI1640, 10% FCS) in a 384-well plate (CORNING #3571). Seed reference plate for time zero determination on the same day. All plates were incubated overnight at 37° C. After 24 hours, test compound were added in 7-step dilution using HP Compound printer and incubated at 37° C. for 72 h. After 3 days, 30 μL/well CTG solution (Promega Cell Titer Glo solution; catalog #G755B and G756B) were added to each well, incubated for 30 minutes and the plate were read on PheraStar. Proliferation is calculated after subtracting time zero luminescence values from day 4 values and comparing to untreated wells.
The IC50 values were determined using the four parameter fit.

For a further assay, the system named is PC9 cells. Description: PC9 cell proliferation assay (EGFRex19del). The settings on record: Homo sapiens, PC-9, 72 h, read-out: PC9 IC50. As to the method: as §1, with “PC9” for “HCC-827”, “PC9” for “HCC-829”, “(DMEM,” for “(RPMI1640,”, “wells. The IC50 values were determined using the four parameter fit.” for “wells.”
A further assay relates to Ba/F3-EGFR-L858R. Description: Ba/F3 cell survival assay, EGFR L858R. To be noted: 48 h, read-out: BA/F3 (EGFR L858R) IC50. Here is the method: (§2) 293T cells from ATCC were transfected with pBABEpuro expression constructs for mutant EGFR (V769_D770insASV, D770_N771insNPG, N771_P772insH, H773_V774insNPH, E746_A750del, L858R, D770_N771 insSVD C797S, E746_A750del C797S, L858R C797S, L861Q) or mutant ERBB2 (A775_G776insYVMA) and pCL-Eco packaging vector using Fugene-6 transfection reagent from Promega. Plates were incubated at 37° C. for 48 h. Retrovirus was harvested by filtering the media supernatant through a 0.45 μm filter.
(§3) Ba/F3 cells purchased from DSMZ were grown in RPMI+10% FBS+10 ng/mL IL-3 and infected with filtered retroviral supernatant at a 1:2 dilution. Polybrene was added to a concentration of 8 μg/mL, plates were spun for 90 min, and incubated overnight at 37° C. 2 μg/mL puromycin was added to the infected cells 24 h after infection and cells were continually grown in the presence of puromycin and 10 ng/mL IL-3. Following stably expressing Ba/F3 cell lines were generated: Ba/F3-EGFR-V769_D770insASV, Ba/F3-EGFR-D770_N771insNPG, Ba/F3-EGFR-N771_P772insH, Ba/F3-EG, Ba/F3-EGFR-H773_V774insNPH, Ba/F3-EGFR-E746_A750del, Ba/F3-EGFR-L858R, Ba/F3-EGFR-D770_N771 insSVD C797S, Ba/F3-EGFR-E746_A750del C797S, Ba/F3-EGFR-L858R C797S, Ba/F3-EGFR L861Q and Ba/F3-ERBB2-A775_G776insYVMA (Ba/F3—vector-control).
(§4) For cell survival assays, Ba/F3 cells were grown to a density of 1-2 million cells per mL, spun down and resuspended in media without IL-3, and replated at a concentration 200,000-500,000 cells per mL. The cells ectopically expressing WT EGFR plated with 10 ng/mL Millipore Culture grade EGF and Ba/F3 cells containing mutant EGFR or Mutant ERBB2 were cultivated without EGF. The cells ectopically expressing pBABEpuro empty vector were plated with 10 ng/mL IL-3.
(§5) 2 days later, cells were plated in 50 μL in a 384 well plate at a concentration of 4000 cells per well for cells assayed in the absence of IL-3 and 2000 cells per well for cells assayed in the presence of IL-3. 100 nL of compound was added to each well using a 100 nL pin head, and plates were incubated at 37° C. for 48 h.
(§6) Cell viability was measured by adding 20 μL of Cell Titer-Glo Luminescent Cell Viability Reagent diluted 1:3 in PBS. Plates were sealed with Perkin Elmer Top-Seal, inverted several times to mix, and immediately centrifuged at 1000 rpm for 2 min. Plates were incubated in low light conditions for 8-10 min and luminescence was measured.

In assay [1] the test system is Ba/F3-EGFR-D770_N771 insSVD C797S. Description: Ba/F3 cell survival assay, EGFR D770_N771insSVD C797S. To be noted: Ba/F3 EGFR-D770-N771ins_SVD, 48 h, read-out: BA/F3 (EGFR 0770_N771 insSVD C797S) IC50. As to the method: as §2, §3, §4, §5, §6
Assay [2] concerns Ba/F3-EGFR-D770_N771insNPG. Description: Ba/F3 cell survival assay, EGFR D770_N771insNPG. The settings on record: Mus musculus, BaF3, 48 h, read-out: BA/F3 (insNPG) IC50. As to the method: as §2, §3, §4, §5, §6
For the next assay, the system named is Ba/F3-EGFR-L858R C797S. Description: Ba/F3 cell survival assay, EGFR L858R C797S. To be noted: 48 h, read-out: BA/F3 (EGFR L858R C797S) IC50. Here is the method: as §2, §3, §4, §5, §6
In the next assay the test system is Ba/F3-EGFR-insSVD. Description: Ba/F3 cell survival assay, EGFR-insSVD. An outline of the steps: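 Ba/F3 cells stably expressing WT EGFR or EGFR-insSVD via retrovirus, grown without IL-3 on 10 ng/mL EGF, plated at 4000 cells/well. Compound exposure 48 h at 37 °C; viability read by CellTiter-Glo luminescence.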
Where [3] appears, read: read-out: BA/F3 (insSVD) IC50, cell viability, Cell Titer-Glo, 48 h, with 10 ng/mL EGF, without IL-3.

As to `COc1c(Cl)cccc1Nc1c(-c2ccncc2OCC2OCC2(C)C)[nH]c2c1C(=O)NCC2` (single isomer, unassigned; (+)) [Example 50, (+)-3-(3-chloro-2-methoxyanilino)-2-{3-[(3,3-dimethyloxetan-2-yl)methoxy]pyridin-4-yl}-1,5,6,7-tetrahydro-4H-pyrrolo[3,2-c]pyridin-4-one], the IC50 in the assay on HCC-827 cells is below 3 nM; in the assay on PC9 cells, 2.3 nM; in the assay on Ba/F3-EGFR-L858R, 1.62 nM; in assay [1] it was 35.1 nM; in assay [2], 9.18 nM; with Ba/F3-EGFR-L858R C797S, 2.92 nM. Further, in the assay on Ba/F3-EGFR-insSVD (setting [3]), the IC50 was determined as 8.76 nM.

As to `COc1c(Cl)cccc1Nc1c(-c2ccncc2OC[C@@H]2CCO2)[nH]c2c1C(=O)NCC2` [Example 2, 3-(3-chlor-2-methoxyanilino)-2-{3-[(2S)-oxetan-2-ylmethoxy]pyridin-4-yl}-1,5,6,7-tetrahydro-4H-pyrrolo[3,2-c]pyridin-4-on], the IC50 in the assay with HCC-827 cells was below 3 nM; with PC9 cells it was 2.31 nM; with Ba/F3-EGFR-L858R it was 1.2 nM; in assay [1], 17.5 nM; in assay [2], 9.76 nM; with Ba/F3-EGFR-L858R C797S, 1.53 nM. In addition, the IC50 in the assay on Ba/F3-EGFR-insSVD (Mus musculus, BaF3, 48 h, read-out: BA/F3 (insSVD) IC50, cell viability, Cell Titer-Glo, 48 h, with 10 ng/mL EGF, without IL-3) worked out at 10.3 nM.

Regarding `COc1c(Cl)cccc1Nc1c(-c2ccncc2OCC2(C)CCO2)[nH]c2c1C(=O)NCC2` (single isomer, unassigned; (+)) [Example 48, (+)-3-(3-chloro-2-methoxyanilino)-2-{3-[(2-methyloxetan-2-yl)methoxy]pyridin-4-yl}-1,5,6,7-tetrahydro-4H-pyrrolo[3,2-c]pyridin-4-one], the IC50 with HCC-827 cells is below 3 nM; in the assay with PC9 cells it was 2.1 nM; with Ba/F3-EGFR-L858R, 1.28 nM; in assay [1], 16.7 nM; in assay [2], 8.52 nM; with Ba/F3-EGFR-L858R C797S it was 1.28 nM. Further, the IC50 in the assay on Ba/F3-EGFR-insSVD (setting [3]) is 9.65 nM.

Regarding `COc1c(Cl)cccc1Nc1c(-c2ccncc2OCCC2CCO2)[nH]c2c1C(=O)NCC2` (single isomer, unassigned; (-)) [Example 26, (−)-3-(3-chloro-2-methoxyanilino)-2-{3-[2-(oxetan-2-yl)ethoxy]pyridin-4-yl}-1,5,6,7-tetrahydro-4H-pyrrolo[3,2-c]pyridin-4-one], the IC50 in the assay on HCC-827 cells was below 3 nM; in the assay with PC9 cells, 1.4 nM; in the assay with Ba/F3-EGFR-L858R, 0.813 nM; in assay [1], 13.7 nM; in assay [2] it was 7.64 nM; in the assay on Ba/F3-EGFR-L858R C797S it was 1 nM. Moreover, the IC50 with Ba/F3-EGFR-insSVD (setting [3]) turned out to be 7.31 nM.
